Assay [1] concerns the target soluble human BACE1 catalytic domain (Homo sapiens (Human), UniProt P56817). In words: BACE1 HTRF FRET Assay. The format is biochemical. The conditions noted are these: Ki calculated from IC50 using the Cheng-Prusoff equation; QSY7-APPswe-Eu substrate, pH 5.0. From the text: Na^+-Acetate pH 5.0; 1% Brij-35; Glycerol; Dimethyl Sulfoxide (DMSO); Recombinant human soluble BACE1 catalytic domain (>95% pure); APP Swedish mutant peptide substrate (QSY7-APP^swe-Eu): QSY7-EISEVNLDAEFC-Europium-amide.
A homogeneous time-resolved FRET assay can be used to determine IC50 values for inhibitors of the soluble human BACE1 catalytic domain. This assay monitors the increase of 620 nm fluorescence that resulted from BACE1 cleavage of an APPswedish APP^swe mutant peptide FRET substrate (QSY7-EISEVNLDAEFC-Europium-amide). This substrate contains an N-terminal QSY7 moiety that serves as a quencher of the C-terminal Europium fluorophore (620 nm Em). In the absence of enzyme activity, 620 nm fluorescence is low in the assay and increased linearly over 3 hours in the presence of uninhibited BACE1 enzyme Inhibition of BACE1 cleavage of the QSY7-APP^swe-Eu substrate by inhibitors is manifested as a suppression of 620 nm fluorescence.
Varying concentrations of inhibitors at 3× the final desired concentration in a volume of 10 ul are preincubated with purified human BACE1 catalytic domain (3 nM in 10 μl) for 30 minutes at 30° C. in reaction buffer containing 20 mM Na-Acetate pH 5.0, 10% glycerol, 0.1% Brij-35 and 7.5% DSMO. Reactions are initiated by addition of 10 μl of 600 nM QSY7-APP^swe-Eu substrate (200 nM final) to give a final reaction volume of 30 μl in a 384 well Nunc HTRF plate. The reactions are incubated at 30° C. for 1.5 hours. The 620 nm fluorescence is then read on a Rubystar HTRF plate reader (BMG Labtechnologies) using a 50 millisecond delay followed by a 400 millisecond acquisition time window Inhibitor IC50 values are derived from non-linear regression analysis of concentration response curves. Ki values are then calculated from IC50 values using the Cheng-Prusoff equation using a previously determined […] of 8 μM for the QSY7-APP^swe-Eu substrate at BACE1.

Assay [2] concerns the target purified human autoBACE-2 (Homo sapiens (Human), UniProt Q9Y5Z0). In words: BACE-2 Assay (BACE-HTRF assay). The format is biochemical. Conditions: Ki calculated from IC50 using the Cheng-Prusoff equation; QSY7-EISEVNLDAEFC-Eu-amide substrate, pH 5.0; read-out: BACE2 Ki. As for the experimental part: Inhibitor IC50s at purified human autoBACE-2 are determined in a time-resolved endpoint proteolysis assay that measures hydrolysis of the QSY7-[…]-Eu-amide FRET peptide substrate (BACE-HTRF assay). […] DMSO is present at 5% final concentration in the assay. Following laser excitation of sample wells at 320 nm, the fluorescence signal at 620 nm is collected for 400 ms following a 50 μs delay on a RUBYstar HTRF plate reader (BMG Labtechnologies). Raw RFU data is normalized to maximum (1.0 nM BACE/DMSO) and minimum (no enzyme/DMSO) RFU values. […] The Ki values are calculated from the IC50 using the Cheng-Prusoff equation.

Sequence of purified human autoBACE-2 (Q9Y5Z0 63-473): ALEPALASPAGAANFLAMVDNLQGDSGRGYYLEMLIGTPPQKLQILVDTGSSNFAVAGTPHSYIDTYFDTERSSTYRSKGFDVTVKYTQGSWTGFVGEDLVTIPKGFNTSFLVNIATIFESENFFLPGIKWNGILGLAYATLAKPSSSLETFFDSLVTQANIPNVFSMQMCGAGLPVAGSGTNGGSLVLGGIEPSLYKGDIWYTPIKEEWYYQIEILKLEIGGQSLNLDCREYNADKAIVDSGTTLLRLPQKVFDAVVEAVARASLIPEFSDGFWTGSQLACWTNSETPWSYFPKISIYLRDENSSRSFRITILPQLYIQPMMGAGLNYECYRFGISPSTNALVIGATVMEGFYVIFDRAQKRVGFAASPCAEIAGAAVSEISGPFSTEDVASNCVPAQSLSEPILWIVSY
Sequence of soluble human BACE1 catalytic domain (P56817 75-416): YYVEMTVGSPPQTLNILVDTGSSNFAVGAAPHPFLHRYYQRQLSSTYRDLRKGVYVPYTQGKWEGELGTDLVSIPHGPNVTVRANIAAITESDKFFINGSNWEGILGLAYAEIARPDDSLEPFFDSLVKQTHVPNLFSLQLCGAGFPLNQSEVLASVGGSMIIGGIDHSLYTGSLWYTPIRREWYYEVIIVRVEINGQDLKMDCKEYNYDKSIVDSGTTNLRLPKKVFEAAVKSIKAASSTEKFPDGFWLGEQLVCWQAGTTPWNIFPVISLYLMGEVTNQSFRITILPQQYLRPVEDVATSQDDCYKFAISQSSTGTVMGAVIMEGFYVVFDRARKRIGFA

For `C#CCOc1cnc(C(=O)Nc2ccc3c(c2)[C@]2(CCC3)CS(=O)(=O)N(C)C(=N)N2)cn1` [Example 5l], the Ki in assay [1] is 11 nM; in assay [2] it was 77 nM.
The matching figures for `CN1C(=N)N[C@@]2(CCCc3ccc(NC(=O)c4cnc(OCC(F)(F)F)cn4)cc32)CS1(=O)=O` [Example 5m]: 72 nM and 508 nM.
Regarding `C#CCOc1ccc(C(=O)Nc2ccc3c(c2)[C@]2(CCC3)CS(=O)(=O)N(C)C(=N)N2)nc1` [Example 5n], the Ki was 42 nM in assay [1] and 221 nM in assay [2].
For `COc1cnc(C(=O)Nc2ccc3c(c2)[C@]2(CCC3)CS(=O)(=O)N(C)C(=N)N2)c(C)c1` [Example 5o], in that order: 119 nM and 17 nM.
On to `COc1cnc(C(=O)Nc2ccc3c(c2)[C@]2(CCC3)CS(=O)(=O)N(C)C(=N)N2)c(C)n1` [Example 5p], for which the inhibition constant (Ki) in assay [1] was 224 nM; in assay [2], 123 nM.
As for `Cc1cc(C#N)cnc1C(=O)Nc1ccc2c(c1)[C@]1(CCC2)CS(=O)(=O)N(C)C(=N)N1` [Example 5q], the Ki is 9 nM in assay [1] and 17 nM in assay [2].
For `COc1cnc(C(=O)Nc2ccc3c(c2)[C@]2(CCC3)CS(=O)(=O)N(C)C(=N)N2)cn1` [Example 5r], in that order: 144 nM and 177 nM.
Turning to `CN1C(=N)N[C@@]2(CCCc3ccc(NC(=O)c4cnc(C(F)(F)F)cn4)cc32)CS1(=O)=O` [Example 5s], the Ki in assay [1] was 253 nM; in assay [2], 685 nM.
The matching figures for `CN1C(=N)N[C@@]2(CCCc3ccc(NC(=O)c4cnsn4)cc32)CS1(=O)=O` [Example 5t]: 264 nM and 56 nM.
With `CN1C(=N)N[C@@]2(CCCc3ccc(NC(=O)c4cc5ccccn5n4)cc32)CS1(=O)=O` [Example 5u], the Ki was 1340 nM in assay [1] and 385 nM in assay [2].
For `CN1C(=N)N[C@@]2(CCCc3ccc(NC(=O)c4ccc(C(F)(F)F)cn4)cc32)CS1(=O)=O` [Example 5v], in that order: 55 nM and 171 nM.
The matching figures for `CN1C(=N)N[C@@]2(CCCc3ccc(NC(=O)c4ccn(C(F)F)n4)cc32)CS1(=O)=O` [Example 5w]: 20 nM and 3 nM.
